# Columns and labels:
# Test in all cases: PDSP GPCR panel primary binding assays at 10 μM
# [1] = target: T1, cloned human or rodent CNS receptors, channels, and transporters (PDSP panel) (Homo sapiens, UniProt P18089); settings: Receptor Alpha2B, primary assay, 10 μM
# T1 construct: expressed in transfected cells
# T1 sequence (P18089 1-450): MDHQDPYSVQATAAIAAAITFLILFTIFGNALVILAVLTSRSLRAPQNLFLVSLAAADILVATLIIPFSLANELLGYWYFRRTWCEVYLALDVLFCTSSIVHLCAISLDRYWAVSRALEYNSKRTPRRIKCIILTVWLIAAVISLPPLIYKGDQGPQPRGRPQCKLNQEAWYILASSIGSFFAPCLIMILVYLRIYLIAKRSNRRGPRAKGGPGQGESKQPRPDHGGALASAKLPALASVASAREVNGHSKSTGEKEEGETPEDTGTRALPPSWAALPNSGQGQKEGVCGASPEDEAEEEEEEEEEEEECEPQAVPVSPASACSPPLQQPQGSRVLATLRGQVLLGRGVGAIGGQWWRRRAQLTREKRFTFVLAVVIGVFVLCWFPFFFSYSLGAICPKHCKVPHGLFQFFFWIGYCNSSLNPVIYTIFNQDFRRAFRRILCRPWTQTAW
# Summary of the method: (§1)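 Each compound is first screened once at 10 μM, in quadruplicate, for radioligand displacement. Where mean displacement passes 50%, an 11-point dose-response in triplicate follows at that target, except at H3, PBR and GABAA.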
# [2] = target: T2, cloned human or rodent CNS receptors, channels, and transporters (PDSP panel) (Homo sapiens, UniProt P35368); settings: Receptor Alpha1B, primary assay, 10 μM
# T2 construct: expressed in transfected cells
# T2 sequence (P35368 1-520): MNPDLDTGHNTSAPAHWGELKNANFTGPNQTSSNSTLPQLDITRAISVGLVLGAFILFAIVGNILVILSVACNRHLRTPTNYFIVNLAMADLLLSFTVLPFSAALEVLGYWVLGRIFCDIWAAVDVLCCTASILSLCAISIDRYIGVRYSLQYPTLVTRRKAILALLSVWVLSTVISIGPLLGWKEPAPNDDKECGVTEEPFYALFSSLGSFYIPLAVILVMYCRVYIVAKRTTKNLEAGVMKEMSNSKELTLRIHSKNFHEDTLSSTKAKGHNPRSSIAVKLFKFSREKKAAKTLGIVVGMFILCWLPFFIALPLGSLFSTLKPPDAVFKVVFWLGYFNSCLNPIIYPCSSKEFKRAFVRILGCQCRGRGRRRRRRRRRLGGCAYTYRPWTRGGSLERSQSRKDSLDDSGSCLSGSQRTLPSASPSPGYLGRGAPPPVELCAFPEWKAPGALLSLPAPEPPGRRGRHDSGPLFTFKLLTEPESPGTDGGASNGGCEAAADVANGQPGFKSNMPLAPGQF
# Summary of the method: as §1
# [3] = target: T3, cloned human or rodent CNS receptors, channels, and transporters (PDSP panel) (Homo sapiens, UniProt P20309); settings: Receptor M3, primary assay, 10 μM
# T3 construct: expressed in transfected cells
# T3 sequence (P20309 whole entry): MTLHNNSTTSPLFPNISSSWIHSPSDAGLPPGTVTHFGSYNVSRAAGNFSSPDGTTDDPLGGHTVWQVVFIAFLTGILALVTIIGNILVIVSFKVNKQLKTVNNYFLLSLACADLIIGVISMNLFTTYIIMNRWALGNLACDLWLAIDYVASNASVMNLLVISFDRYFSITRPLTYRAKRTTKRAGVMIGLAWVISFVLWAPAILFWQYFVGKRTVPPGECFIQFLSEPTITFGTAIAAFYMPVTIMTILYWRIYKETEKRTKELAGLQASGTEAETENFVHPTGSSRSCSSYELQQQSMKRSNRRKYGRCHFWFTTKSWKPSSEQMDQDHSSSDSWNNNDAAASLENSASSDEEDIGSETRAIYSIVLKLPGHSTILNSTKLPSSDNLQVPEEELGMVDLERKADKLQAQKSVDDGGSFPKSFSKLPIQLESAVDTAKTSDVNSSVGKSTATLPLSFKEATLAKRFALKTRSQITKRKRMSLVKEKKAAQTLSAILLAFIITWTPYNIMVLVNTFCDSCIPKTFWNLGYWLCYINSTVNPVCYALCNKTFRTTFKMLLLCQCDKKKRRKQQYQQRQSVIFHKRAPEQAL
# Summary of the method: as §1
# [4] = target: T4, cloned human or rodent CNS receptors, channels, and transporters (PDSP panel) (Homo sapiens, UniProt P08173); settings: Receptor M4, primary assay, 10 μM
# T4 construct: expressed in transfected cells
# T4 sequence (P08173 1-479): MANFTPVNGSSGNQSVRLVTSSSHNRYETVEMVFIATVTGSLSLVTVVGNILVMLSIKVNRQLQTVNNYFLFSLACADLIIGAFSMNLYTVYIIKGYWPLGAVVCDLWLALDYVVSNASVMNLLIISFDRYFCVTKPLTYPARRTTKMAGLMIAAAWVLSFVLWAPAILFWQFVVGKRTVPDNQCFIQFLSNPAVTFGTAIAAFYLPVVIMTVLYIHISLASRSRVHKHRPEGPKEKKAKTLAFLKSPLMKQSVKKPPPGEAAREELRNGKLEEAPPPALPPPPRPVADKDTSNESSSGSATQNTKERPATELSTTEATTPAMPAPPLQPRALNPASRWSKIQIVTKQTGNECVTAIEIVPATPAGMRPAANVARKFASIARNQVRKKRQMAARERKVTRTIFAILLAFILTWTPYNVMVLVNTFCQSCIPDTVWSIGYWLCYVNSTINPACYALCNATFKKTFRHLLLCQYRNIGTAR
# Summary of the method: as §1
# [5] = target: T5, cloned human or rodent CNS receptors, channels, and transporters (PDSP panel) (Homo sapiens, UniProt P25100); settings: Receptor Alpha1D, primary assay, 10 μM
# T5 construct: expressed in transfected cells
# T5 sequence (P25100 1-572): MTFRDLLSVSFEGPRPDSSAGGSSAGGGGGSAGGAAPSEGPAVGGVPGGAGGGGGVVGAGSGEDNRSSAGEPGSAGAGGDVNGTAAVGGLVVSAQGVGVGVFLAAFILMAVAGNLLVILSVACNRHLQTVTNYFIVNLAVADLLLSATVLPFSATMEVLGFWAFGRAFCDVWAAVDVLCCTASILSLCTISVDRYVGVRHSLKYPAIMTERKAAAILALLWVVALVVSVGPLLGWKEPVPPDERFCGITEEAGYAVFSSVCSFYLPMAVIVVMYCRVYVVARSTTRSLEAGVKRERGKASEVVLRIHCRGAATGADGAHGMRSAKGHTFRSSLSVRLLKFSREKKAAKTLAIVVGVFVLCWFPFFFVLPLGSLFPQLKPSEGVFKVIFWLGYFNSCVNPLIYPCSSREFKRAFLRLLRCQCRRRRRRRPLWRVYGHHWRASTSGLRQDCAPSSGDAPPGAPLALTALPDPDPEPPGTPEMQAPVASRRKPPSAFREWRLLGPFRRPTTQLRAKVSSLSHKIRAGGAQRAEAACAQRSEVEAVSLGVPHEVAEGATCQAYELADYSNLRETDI
# Summary of the method: as §1
smiles,measurement,setting,value
"O=c1oc2ccccc2cc1-c1cn2cc(Cc3ccc(F)cc3)sc2n1 [UNC10302680A, iMDK]",Inhibition 1,[1],0.83%
same,Inhibition 2,[1],1.88%
same,Inhibition 3,[1],-7.31%
same,Inhibition 4,[1],7.87%
same,Mean %,[1]; mean of Inhibition 1-4,0.82%
same,Inhibition 1,[2],2.49%
same,Inhibition 2,[2],0.66%
same,Inhibition 3,[2],-2.09%
same,Inhibition 4,[2],-5.18%
same,Mean %,[2]; mean of Inhibition 1-4,-1.03%
same,Inhibition 1,[3],9.1%
same,Inhibition 2,[3],60.54%
same,Inhibition 3,[3],10.14%
same,Inhibition 4,[3],13.11%
same,Mean %,[3]; mean of Inhibition 1-4,23.22%
same,Inhibition 1,[4],4.02%
same,Inhibition 2,[4],16.88%
same,Inhibition 3,[4],25.61%
same,Inhibition 4,[4],10.91%
same,Mean %,[4]; mean of Inhibition 1-4,14.36%
same,Inhibition 1,[5],-7.71%
same,Inhibition 2,[5],-9.56%
same,Inhibition 3,[5],-10.98%
same,Inhibition 4,[5],-17.23%
same,Mean %,[5]; mean of Inhibition 1-4,-11.37%

# — publication PMC9005681, “Use of AD Informer Set compounds to explore validity of novel targets in Alzheimer's disease pathology” (Alzheimer's & Dementia : Translational Research & Clinical …, 2022)
